# Earlier results as cited in patent US20060045850A1, “Nasal delivery of cyclodextrin complexes of anti-inflammatory steroids” (QPharma, LLC, priority 2004, published 2006).
smiles,measurement,setting,value
CCC(=O)O[C@]1(C(=O)SCF)[C@H](C)C[C@H]2[C@@H]3C[C@H](F)C4=CC(=O)C=C[C@]4(C)[C@@]3(F)[C@@H](O)C[C@@]21C [Fluticasone],absorption when administered orally,administered orally,no absorption
same,absolute bio-availability,"from the suspension formulation, administered nasally",less than 2.0%
